Source: ChEMBL document CHEMBL3885861, “Open TG-GATES”

Species on record: Rattus norvegicus
Assay: Open TG-GATES - Regimen: Single
Type: toxicity, organism-based, Sprague-Dawley
Design: regimen Single, gender Male, age 6 weeks
Conditions: in vivo, po, 0 mg/kg, route gavage, dose level Control; for APTT / Bas / Eos / Fbg / Hb / Ht / Lym / MCH / MCHC / MCV / Mono / Neu / PT / Plat / RBC / Ret / WBC: tissue Blood; for KIDNEY_L / KIDNEY_R / KIDNEY_TOTAL: tissue Kidney; for LIVER: tissue Liver; for A/G / ALP / ALT / AST / BUN / CRE / Ca / Cl / DBIL / GLC / IP / K / LDH / Na / PL / RALB / TBIL / TC / TG / TP / gamma-GTP: tissue Plasma

O=NN(CCCl)C(=O)NC1CCCCC1 [LOMUSTINE]
TERMINAL_BW (3 h): 205.6 g
APTT (3 h): 16.5 s
Bas (3 h): 0%
Eos (3 h): 0.6%
Fbg (3 h): 207.8 mg/dL
Hb (3 h): 13 g/dL
Ht (3 h): 39.5%
Lym (3 h): 82%
MCH (3 h): 21.7 pg
MCHC (3 h): 32.9%
MCV (3 h): 66 fL
Mono (3 h): 6.4%
Neu (3 h): 11.2%
PT (3 h): 11 s
Plat (3 h): 100.4 x10_4/uL
RBC (3 h): 599.2 x10_4/ul
Ret (3 h): 8.5%
WBC (3 h): 134.2 x10_2/uL
KIDNEY_L (3 h): 0.9 g
KIDNEY_R (3 h): 0.9 g
KIDNEY_TOTAL (3 h): 1.9 g
LIVER (3 h): 10 g
A/G (3 h): 2
ALP (3 h): 881.4 IU/L
ALT (3 h): 36.4 IU/L
AST (3 h): 66.4 IU/L
BUN (3 h): 14.6 mg/dL
CRE (3 h): 0.6 mg/dL
Ca (3 h): 11.3 mg/dL
Cl (3 h): 106.4 meq/L
DBIL (3 h): 0.072 mg/dL
GLC (3 h): 187 mg/dL
IP (3 h): 9.5 mg/dL
K (3 h): 5 meq/L
LDH (3 h): 89.6 IU/L
Na (3 h): 139.8 meq/L
PL (3 h): 134.4 mg/dL
RALB (3 h): 3.7 g/dL
TBIL (3 h): 0.3 mg/dL
TC (3 h): 76.4 mg/dL
TG (3 h): 50.2 mg/dL
TP (3 h): 5.6 g/dL
gamma-GTP (3 h): 1.4 IU/L
TERMINAL_BW (6 h): 200.9 g
APTT (6 h): 17.4 s
Bas (6 h): 0%
Eos (6 h): 0.6%
Fbg (6 h): 218.2 mg/dL
Hb (6 h): 13.6 g/dL
Ht (6 h): 41.3%
Lym (6 h): 72%
MCH (6 h): 22 pg
MCHC (6 h): 32.9%
MCV (6 h): 66.7 fL
Mono (6 h): 6.6%
Neu (6 h): 20.6%
PT (6 h): 12.2 s
Plat (6 h): 106.2 x10_4/uL
RBC (6 h): 619.2 x10_4/ul
Ret (6 h): 8.9%
WBC (6 h): 71.6 x10_2/uL
KIDNEY_L (6 h): 1 g
KIDNEY_R (6 h): 1 g
KIDNEY_TOTAL (6 h): 2 g
LIVER (6 h): 9.4 g
A/G (6 h): 2
ALP (6 h): 849.6 IU/L
ALT (6 h): 28.2 IU/L
AST (6 h): 66 IU/L
BUN (6 h): 10.2 mg/dL
CRE (6 h): 0.5 mg/dL
Ca (6 h): 11.1 mg/dL
Cl (6 h): 103.4 meq/L
DBIL (6 h): 0.01 mg/dL
GLC (6 h): 189.6 mg/dL
IP (6 h): 11.2 mg/dL
K (6 h): 5.6 meq/L
LDH (6 h): 116.4 IU/L
Na (6 h): 141.2 meq/L
PL (6 h): 141.6 mg/dL
RALB (6 h): 3.7 g/dL
TBIL (6 h): 0.3 mg/dL
TC (6 h): 78.8 mg/dL
TG (6 h): 50.6 mg/dL
TP (6 h): 5.7 g/dL
gamma-GTP (6 h): 1 IU/L
TERMINAL_BW (9 h): 199.9 g
APTT (9 h): 16.9 s
Bas (9 h): 0%
Eos (9 h): 0.8%
Fbg (9 h): 213.2 mg/dL
Hb (9 h): 13.1 g/dL
Ht (9 h): 40.2%
Lym (9 h): 79.4%
MCH (9 h): 21.7 pg
MCHC (9 h): 32.6%
MCV (9 h): 66.4 fL
Mono (9 h): 6.2%
Neu (9 h): 14%
PT (9 h): 12.5 s
Plat (9 h): 107.9 x10_4/uL
RBC (9 h): 606.2 x10_4/ul
Ret (9 h): 8.8%
WBC (9 h): 91.5 x10_2/uL
KIDNEY_L (9 h): 0.9 g
KIDNEY_R (9 h): 0.9 g
KIDNEY_TOTAL (9 h): 1.8 g
LIVER (9 h): 8.5 g
A/G (9 h): 2.4
ALP (9 h): 985 IU/L
ALT (9 h): 28 IU/L
AST (9 h): 55.8 IU/L
BUN (9 h): 10.8 mg/dL
CRE (9 h): 0.5 mg/dL
Ca (9 h): 10.8 mg/dL
Cl (9 h): 105.6 meq/L
DBIL (9 h): 0.072 mg/dL
GLC (9 h): 193.6 mg/dL
IP (9 h): 11 mg/dL
K (9 h): 4.8 meq/L
LDH (9 h): 101 IU/L
Na (9 h): 139 meq/L
PL (9 h): 120.8 mg/dL
RALB (9 h): 3.9 g/dL
TBIL (9 h): 0.3 mg/dL
TC (9 h): 67.2 mg/dL
TG (9 h): 43.2 mg/dL
TP (9 h): 5.6 g/dL
gamma-GTP (9 h): 1.4 IU/L
TERMINAL_BW (24 h): 218.2 g
APTT (24 h): 16 s
Bas (24 h): 0%
Eos (24 h): 0.4%
Fbg (24 h): 225 mg/dL
Hb (24 h): 13 g/dL
Ht (24 h): 38.8%
Lym (24 h): 80.4%
MCH (24 h): 22.5 pg
MCHC (24 h): 33.5%
MCV (24 h): 67.2 fL
Mono (24 h): 6.4%
Neu (24 h): 12.4%
PT (24 h): 11.9 s
Plat (24 h): 100.3 x10_4/uL
RBC (24 h): 578.2 x10_4/ul
Ret (24 h): 8.8%
WBC (24 h): 130.7 x10_2/uL
KIDNEY_L (24 h): 1 g
KIDNEY_R (24 h): 1 g
KIDNEY_TOTAL (24 h): 2 g
LIVER (24 h): 11.5 g
A/G (24 h): 2.1
ALP (24 h): 991.8 IU/L
ALT (24 h): 35 IU/L
AST (24 h): 63.6 IU/L
BUN (24 h): 19.2 mg/dL
CRE (24 h): 0.5 mg/dL
Ca (24 h): 11.3 mg/dL
Cl (24 h): 104.8 meq/L
DBIL (24 h): 0.018 mg/dL
GLC (24 h): 203.8 mg/dL
IP (24 h): 8.4 mg/dL
K (24 h): 5.4 meq/L
LDH (24 h): 130.2 IU/L
Na (24 h): 138.2 meq/L
PL (24 h): 146.6 mg/dL
RALB (24 h): 3.9 g/dL
TBIL (24 h): 0.4 mg/dL
TC (24 h): 79.8 mg/dL
TG (24 h): 96.6 mg/dL
TP (24 h): 5.8 g/dL
gamma-GTP (24 h): 1.4 IU/L
